Test results from US20110207760A1, “SN-38 COMPOSITIONS” (priority 2010, published 2011).

How the values were obtained:
[1] = Dissolution of SN-38 in aqueous SBECD at 100° C. (HPLC); type: physicochemical; conditions: boiling water bath 1 hour, 24 hours room temperature
Experimental: 37.6 mL water was added to 62.4 g sodium sulfobutyl ether beta-cyclodextrin (having a substitution level of about 7, as determined by NMR, and a water content of 3.9%, as determined by Karl-Fisher method), and was mixed until homogenous. The resulting viscous liquid was filtered through a 0.2 micrometer nylon filter to produce 60% (w/w) clear aqueous solution of SBECD. The density of this solution was 1.29 g/mL.
2 mg of SN-38 was added to 4g of such 60% (w/w) aqueous SBECD, and the mixture heated in a boiling water bath for 1 hour, allowed to cool and kept at room temperature for 24 hours, and then filtered through a 0.2 micrometer nylon filter with a 1 micrometer glass fiber prefilter. A clear yellow viscous liquid was produced.
(§1) Aliquots of the resultant SN-38 composition in aqueous SBECD were diluted 6 times with water, and further diluted with 10% (w/w) aqueous SBECD to obtain samples having a concentration suitable for HPLC analysis. The samples were analyzed by HPLC using column Symmetry Shield C18 3.5 μ, 50×4.6 mm (Waters), water (0.1% TFA)—acetonitrile (0.1% TFA) gradient and UV detection at 225 nm and 260 nm. The concentrations of SN-38 in the samples were determined by comparison of the area under the peak with the results obtained from analysis of standard solutions.
4 g samples of aqueous SBECD having a concentration of 20%, 30%, 40%, 50% and 60% (w/w), respectively, were mixed with 2 mg of SN-38. The mixtures were heated in boiling water bath for 1 hour and then were kept for 24 hours at room temperature. The mixtures were then filtered through a 0.2 micrometer nylon filter and analyzed by HPLC as described in Example 1.

[2] = Dissolution of SN-38 in 60% (w/w) aqueous SBECD at 34° C. (HPLC); type: physicochemical; conditions: Example 2: 60% (w/w) aqueous SBECD, 48 hours, filtered
Experimental: as §1
A sample of 4 g of 60% (w/w) aqueous SBECD was mixed with 2 mg of SN-38, and the mixture was incubated at 34° C. with constant mixing for 48 hours. The mixture was then filtered through 0.2 micrometer nylon filter and analyzed by HPLC as described in Example 1. The concentration of SN-38 in solution was 0.16 mg/g.

[3] = Physical stability of SN-38 in diluted aqueous cyclodextrin solutions (HPLC); type: physicochemical; conditions: for Concentration of SN-38 relative to time 0 h: room temperature
Experimental: as §1
The SN-38 solution prepared as in the Example 1 was diluted with water, by weight, to obtain solutions containing respectively 5% SBECD, 10% SBECD, and 20% SBECD. All solutions were kept at room temperature and periodically analyzed by HPLC using the method described in the Example 1.
A solution of SN-38 in hydroxypropyl beta-cyclodextrin (HPbCD) was prepared using the procedure described in the Example 1. This solution was subsequently diluted with water, by weight, to obtain HPbCD concentration 20%. The relative change of SN-38 concentration in this solution after 70 hours was determined as described above, and is noted in Table 3 below.
A solution of SN-38 in dimethyl beta-cyclodextrin (DMbCD) was prepared using the procedure described in the Example 1. This solution was subsequently diluted with water, by weight, to obtain DMbCD concentration 20%. The relative change of SN-38 concentration in this solution after 22.5 hours was determined as described above, and is noted in Table 4 below.

[4] = tested on: Human Colon Carcinoma LoVo DX Cells; assay: Growth of subcutaneous solid tumor of LoVo DX cells in mice; type: in vivo, Balb/c mice; conditions: treated group, (SEM); for Tumor volume: SN-38 4.5 mg/kg in 20% SBECD i.p. twice daily; for Tumor volume increase: relative to day 0 of treatment
Excerpt: Lovo Dx cells (2.5×10^6 cells per an injection) in culture medium with 30% Matrigel were subcutaneously inoculated at 2 sides of the flank (in the mid-flank) of each of 15 Balb/c mice. 20 days after inoculation the animals were randomly divided into 2 groups: control (8 mice) and treated (7 animals). On day 21, 24, 27 and 30 after inoculation (days 1, 4, 7, and 10 of treatment), twice daily, at 10 am and at 4 pm, the animals received intraperitoneal injections. Control animals received each time injection of 0.49 mL of 0.9% saline. Treated animals received each time injection of SN-38 solution in 20% SBECD (w/w), 4.5 mg/kg of SN-38. The SN-38 solution for the treatment was prepared by the dilution of concentrated composition of the Example 1 with water. Tumor sizes and body weight of each animal was monitored during treatment. The results represented as average tumor volume estimated from measurements of tumor diameters (V=0.5*D1*D2*D2, where Dl and D2 are longer and shorter diameter of the tumor) are presented in Table 7 below (the standard error of mean is in parentheses).

[5] = room temperature; cited from earlier work

For `CCc1c2c(nc3ccc(O)cc13)-c1cc3c(c(=O)n1C2)COC(=O)[C@]3(O)CC` [SN-38, (4S)-4,11-Diethyl-4,9-dihydroxy-1H-pyrano[3′,4′:6,7]indolizino[1,2-b]quinoline-3,14(4H,12H)dione], the SN-38 concentration ([1]; 20% SBECD) was 0.03 mg/g of solution, the SN-38 concentration ([1]; 30% SBECD) was 0.07 mg/g of solution and the SN-38 concentration ([1]; 40% SBECD) was 0.13 mg/g of solution. The SN-38 concentration ([1]; 50% SBECD) was 0.23 mg/g of solution, the SN-38 concentration ([1]; 60% SBECD) was 0.40 mg/g of solution and the “concentration of SN-38 in the product solution” value ([1]; Example 1: 60% (w/w) aqueous SBECD, filtered) was 0.40 mg/g of composition. The “concentration of SN-38 in solution” value [2] was 0.16 mg/g, the “Concentration of SN-38 relative to time 0 h” value ([3]; 5% SBECD, 0 h) was 100.0 and the “Concentration of SN-38 relative to time 0 h” value ([3]; 5% SBECD, 5 h) was 96.6. The “Concentration of SN-38 relative to time 0 h” value ([3]; 5% SBECD, 23 h) was 91.4, the “Concentration of SN-38 relative to time 0 h” value ([3]; 5% SBECD, 47 h) was 85.2 and the “Concentration of SN-38 relative to time 0 h” value ([3]; 5% SBECD, 71 h) was 79.2. For the same compound, the “Concentration of SN-38 relative to time 0 h” value ([3]; 5% SBECD, 98 h) was 77.9, the “Concentration of SN-38 relative to time 0 h” value ([3]; 10% SBECD, 0 h) was 100.0 and the “Concentration of SN-38 relative to time 0 h” value ([3]; 10% SBECD, 5 h) was 97.9. For the same compound, the “Concentration of SN-38 relative to time 0 h” value ([3]; 10% SBECD, 23 h) was 94.9, the “Concentration of SN-38 relative to time 0 h” value ([3]; 10% SBECD, 47 h) was 90.8 and the “Concentration of SN-38 relative to time 0 h” value ([3]; 10% SBECD, 71 h) was 87.7. For the same compound, the “Concentration of SN-38 relative to time 0 h” value ([3]; 10% SBECD, 98 h) was 85.5, the “relative change of SN-38 concentration” value ([3]; 20% DMbCD, 0 h) was 100.0 and the “relative change of SN-38 concentration” value ([3]; 20% DMbCD, 22.5 h) was 42.5. For the same compound, the “relative change of SN-38 concentration” value ([3]; 20% HPbCD, 0 h) was 100.0, the “relative change of SN-38 concentration” value ([3]; 20% HPbCD, 70 h) was 63.0 and the “Concentration of SN-38 relative to time 0 h” value ([3]; 20% SBECD, 0 h) was 100.0. The “Concentration of SN-38 relative to time 0 h” value ([3]; 20% SBECD, 5 h) was 99.5, the “Concentration of SN-38 relative to time 0 h” value ([3]; 20% SBECD, 23 h) was 97.6 and the “Concentration of SN-38 relative to time 0 h” value ([3]; 20% SBECD, 47 h) was 96.3. For the same compound, the “Concentration of SN-38 relative to time 0 h” value ([3]; 20% SBECD, 71 h) was 95.1, the “Concentration of SN-38 relative to time 0 h” value ([3]; 20% SBECD, 98 h) was 93.2 and the Tumor volume ([4]; day 0 of treatment) was 0.123 (0.010) cm^3. The Tumor volume ([4]; day 4 of treatment) was 0.128 (0.010) cm^3, the Tumor volume ([4]; day 6 of treatment) was 0.140 (0.011) cm^3 and the Tumor volume ([4]; day 8 of treatment) was 0.142 (0.012) cm^3. The Tumor volume ([4]; day 11 of treatment) was 0.163 (0.017) cm^3, the Tumor volume ([4]; day 13 of treatment) was 0.185 (0.019) cm^3 and the Tumor volume ([4]; day 15 of treatment) was 0.195 (0.020) cm^3. The Tumor volume ([4]; day 18 of treatment) was 0.217 (0.024) cm^3, the Tumor volume ([4]; day 20 of treatment) was 0.284 (0.040) cm^3 and the Tumor volume ([4]; day 22 of treatment) was 0.349 (0.055) cm^3. The Tumor volume increase ([4]; day 0) was 100 Percentage, the Tumor volume increase ([4]; day 4) was 105 (4) Percentage and the Tumor volume increase ([4]; day 6) was 115 (6) Percentage. For the same compound, the Tumor volume increase ([4]; day 8) was 117 (7) Percentage, the Tumor volume increase ([4]; day 11) was 133 (11) Percentage and the Tumor volume increase ([4]; day 13) was 150 (10) Percentage. For the same compound, the Tumor volume increase ([4]; day 15) was 157 (10) Percentage, the Tumor volume increase ([4]; day 18) was 175 (12) Percentage and the Tumor volume increase ([4]; day 20) was 224 (22) Percentage. The Tumor volume increase ([4]; day 22) was 271 (29) Percentage and the solubility in water [5] was “about 0.00008 mg/mL”.
